Assay results taken from US20130136803A1, “COMPOSITIONS FOR ALGAE TREATMENT IN RECIRCULATING AND STAGNANT WATER SYSTEMS” (ARCH CHEMICALS, INC., priority 2011, published 2013).

Test system: wild mustard algae strain
Assay: Efficacy of zinc and chelating agents against mustard algae (biomass over time by absorbance at 450 nm and visual assessment)
Format: cell-based
Settings: FIGS. 1-4
Method: A wild mustard algae strain isolated from a residential swimming pool was used in this study. This strain was re-suspended into sterile capped flasks of 250 ml capacity, containing 100 ml sterile Kratz/Meyers (KM) algae medium. Algae stock cultures were incubated at room temperature with a 16/8 hours on/off cycle white fluorescent lighting for approximately 2 weeks to obtain actively growing liquid cultures at the time of experiment.
Sterile KM medium was dispensed in 50 ml aliquots into sterile 125 ml capped Erlenmeyer flasks containing 40 glass beads of 6 mm diameter. Beads provided an increased surface area for algae to attach, since this alga develops as a loosely attached yellow growth on pool surfaces. Simultaneously, beads helped to homogenize samples by grinding at the time of sampling. An initial mustard algae culture of approximately 2×104 was set into each flask. […]
Algal cultures were challenged with 2 or 4 ppm zinc from zinc sulfate monohydrate combined with 2 or 10 ppm chelator. […] Biomass was measured over time by surrogate parameters: absorbance and visual assessment. Absorbance was measured at 450 nm using 1 inch cell in a spectrophotometer; visual assessment range was 0-3, where “0” equal to no growth and “3” equal to very heavy growth. The results of the optical readings were arithmetically averaged. […]

O=P1([O-])OP(=O)([O-])OP(=O)([O-])OP(=O)([O-])OP(=O)([O-])OP(=O)([O-])O1.[Na+].[Na+].[Na+].[Na+].[Na+].[Na+] [SHMP, sodium hexametaphosphate]
effect of chelating agent on the algaestatic activity of zinc ions (2 or 4 ppm zinc from zinc sulfate monohydrate combined with 2 or 10 ppm chelator, 3 weeks, compared with zinc alone): enhanced the performance of the algaestatic activity of zinc ions at all concentrations
dependence of the enhancing effect on the ratio of zinc to SHMP (zinc to SHMP ratios 2:1 to 1:5): effect became greater with increasing amount of SHMP to a ratio of 1:5
